Source: the NIST ThermoML archive (doi:10.1016/j.jct.2016.02.009)

Assay: molar heat capacity at constant pressure
Conditions: 101.33 kPa, Crystal 2, Small (less than 1 g) adiabatic calorimetry

CCCCCCCCCCCCCCn1cc[n+](C)c1.O=S(=O)([N-]S(=O)(=O)C(F)(F)F)C(F)(F)F
Conditions | molar heat capacity at constant pressure [J/K/mol]
4.89 K | 3.21
5 K | 3.43
5.1 K | 3.64
5.39 K | 4.23
5.69 K | 4.88
6 K | 5.63
6.34 K | 6.47
6.73 K | 7.47
7.11 K | 8.54
7.5 K | 9.67
7.9 K | 10.86
8.3 K | 12.12
8.7 K | 13.43
9.11 K | 14.79
9.52 K | 16.21
9.93 K | 17.69
10 K | 17.94
10.45 K | 19.63
11.1 K | 22.1
11.75 K | 24.67
12.39 K | 27.32
13.04 K | 30.06
13.7 K | 32.85
14.36 K | 35.72
15 K | 38.56
15.02 K | 38.63
15.8 K | 42.14
16.7 K | 46.22
17.61 K | 50.37
18.51 K | 54.57
19.42 K | 58.74
20 K | 61.41
20.33 K | 62.84
21.54 K | 68.49
23.07 K | 75.56
24.61 K | 82.47
25 K | 84.18
26.14 K | 89.18
27.68 K | 95.96
29.23 K | 102.6
30 K | 105.9
30.94 K | 110.1
32.82 K | 117.9
34.72 K | 125.4
35 K | 126.4
36.61 K | 132.8
38.5 K | 140.1
40 K | 145.8
40.39 K | 147.2
42.38 K | 154.5
44.49 K | 162.2
45 K | 164.1
46.6 K | 169.8
48.71 K | 177.1
50 K | 181.5
50.83 K | 184.3
52.96 K | 191.2
55.08 K | 198
57.2 K | 204.8
59.33 K | 211.5
60 K | 213.6
61.45 K | 218
63.59 K | 224.5
65.72 K | 230.7
67.86 K | 236.8
70 K | 242.6
70.01 K | 242.5
72.16 K | 248.4
74.3 K | 254.1
76.46 K | 260.1
78.61 K | 266.1
80 K | 269.2
80.77 K | 271.8
81.2 K | 272.4
82.94 K | 276.6
83.19 K | 277.4
85.13 K | 281.8
85.17 K | 281.5
87.16 K | 286.5
89.15 K | 291.4
90 K | 293.7
91.14 K | 296.2
93.13 K | 301
95.13 K | 305.5
97.13 K | 310.1
99.14 K | 314.6
100 K | 316.7
101.15 K | 319.3
103.16 K | 324
105.16 K | 328.1
107.17 K | 332.6
109.18 K | 336.8
110 K | 338.4
111.2 K | 340.6
113.23 K | 345
115.25 K | 349.2
117.27 K | 353.4
119.3 K | 357.4
120 K | 358.8
121.32 K | 361.5
123.35 K | 365.5
124.9 K | 368.4
125.83 K | 370.4
127.42 K | 373.3
128.64 K | 376
129.89 K | 378.2
130 K | 378.6
131.38 K | 381.2
132.35 K | 383
134.13 K | 386.5
134.81 K | 387.8
136.88 K | 391.8
137.28 K | 392.5
139.62 K | 397
139.75 K | 397.2
140 K | 397.8
142.22 K | 402.1
142.37 K | 402.3
144.69 K | 406.6
145.12 K | 407.7
147.16 K | 411.2
147.86 K | 412.6
149.63 K | 415.9
150 K | 416.6
150.61 K | 418
152.1 K | 420.5
153.36 K | 423.1
154.57 K | 425.1
156.12 K | 428.1
157.05 K | 429.7
158.87 K | 433.3
159.52 K | 434.5
160 K | 435.3
161.63 K | 438.6
161.99 K | 439.1
164.38 K | 443.7
164.46 K | 443.6
166.93 K | 448.2
167.13 K | 448.7
169.4 K | 453
169.88 K | 453.9
170 K | 454.1
171.87 K | 457.5
172.63 K | 459.1
174.33 K | 462.3
175.38 K | 464.4
176.79 K | 467
178.12 K | 469.7
179.25 K | 471.5
